Experimental findings from paper PMC7730206, “2-Deoxy-D-glucose Promotes Buforin IIb-Induced Cytotoxicity in Prostate Cancer DU145 Cells and Xenograft Tumors” (Molecules, 2020) are described below.

Holding throughout (format): cell-based, human
For assay [1], the system named is DU145 cells. Nature of the assay: EdU incorporation assay (cell proliferation). The settings on record: 2-DG 2 mM, buforin IIb 2 μM, alone or in combination, 24 h. Here is the method: Cultured cells were plated in 12-well plates at a density of 2 × 10^5 cells/mL and treated with buforin IIb (2 μM) and 2-DG (2 mM) alone and in combination for 24 h. Cells were then incubated with in medium containing EdU (10 μM) for 2 h, fixed with 4% paraformaldehyde for 15 min, and permeabilized with 0.2% Triton X-100 for 15 min. Cells were then incubated with EdU staining cocktail at room temperature in the dark for 30 min. After washing with PBS, cell nuclei were stained with DAPI at a concentration of 10 μg/mL for 15 min. More than five images of each well were acquired by fluorescence microscope, and the percentage of EdU-positive cells was evaluated.

Assay [2] has as its system DU145 cells. Nature of the assay: Annexin V-FITC/PI apoptosis flow cytometry. The settings on record: 2 μM buforin IIb alone or with 2 mM 2-DG, 24 h; Annexin V/PI FACS. The method, then: DU145 cells were seeded (3 × 10^5 cells/mL) into 6-well plates and treated with buforin IIb (2 μM) and 2-DG (2 mM) alone and in combination for 24 h. After collecting and washing with PBS, the cells were re-suspended in 500 μL of binding buffer, stained with FITC-conjugated Annexin V and PI, and incubated on ice in the dark for 10 min. The stained cells were analyzed by flow cytometry, and the percentage of apoptotic cells was calculated using Cell Quest software.
(Flow cytometry measures light scatter and fluorescence of single cells or particles in a stream.)

The subject of assay [3] is DU145 cells. Briefly: Cell cycle analysis (PI staining, FACS). The following applies: 2-DG 2 mM, buforin IIb 2 μM, alone or in combination, 24 h. The method, then:
Cell cycle analysis was performed using the Cell Cycle Analysis Kit. Briefly, cells were seeded into 6-well culture plates at a density of 3 × 10^5 cells/mL. After treatment with 2-DG (2 mM) and buforin IIb (2 μM) alone or in combination for 24 h, cells were digested by 0.25% trypsin without EDTA, fixed in 70% cold ethanol for 5 h at 4 °C, and then stained with propidium iodide (PI) and RNase A solution for 30 min at 37 °C in the dark. The cell distribution across the cell cycle was analyzed with a FACS Vantage SE flow cytometer.

Assay [4] has as its system DU145 cells. Nature of the assay: L-lactate production. The settings on record: 2 mM 2-DG 24 h; 2 μM buforin IIb 12 h; combination: 2-DG pretreatment 12 h then buforin IIb 12 h; lactate in medium. The method, then: (§1) Cells were seeded at approximately 3 × 10^5 cells/mL in 6-well plates and treated with 2-DG (2 mM) alone for 24 h and buforin IIb alone (2 μM) or both for 12 h. After centrifugation, the culture medium and cells were collected to estimate the L-lactate and ATP content using the ATP content assay kit (Solarbio, Beijing, China) and L-lactate assay kit (Jiancheng Bioengineering, Nanjing, China) according to the manufacturer’s protocol. […] The collected cells were subjected to ultrasonic disruption and centrifuged at 8000× g for 10 min at 4 °C to collect the supernatant for intracellular ATP detection. Creatine kinase catalyzes the production of phosphocreatine from creatine and ATP. The level of ATP was determined by detecting the phosphocreatine content though the colorimetric method of phosphomolybdic acid at 700 nm. Six replicates were performed for each group, and the experiments were repeated three times to confirm the results.

The subject of assay [5] is prostate cancer cell line DU145. Briefly: CCK-8 cell viability assay, DU145. The settings on record: 2 μM buforin IIb alone or with 2 mM 2-DG, 24 h, CCK-8. Here is the method:
Cells were seeded in 96-well plates at a density of 1 × 10^5 cells/mL in medium, and then treated with different concentrations of buforin IIb and 2-DG alone or in combination for 24 h. After treatment, 10 μL CCK-8 was added to each well, and the plates were incubated in the dark at 37 °C for 2 h. Absorbance at 450 nm was measured using a […]1 multifunction microplate reader. Each experiment was performed in triplicate, and cell viability was expressed as a percentage of the control. The drug-drug interactions between buforin IIb and 2-DG were evaluated using the combination index (CI) described by Chou and Talalay, and calculated using Compusyn software (Biosoft). CI values < 1, = 1 or > 1 indicated synergy, additivity, or antagonism, respectively.

Assay [6] concerns Bcl-2, Bak, Bax, cytochrome c, caspase 3 in DU145 cells. Briefly: Western blot of apoptosis-related proteins. The settings on record: 2 mM 2-DG 12 h and/or 2 μM buforin IIb 12 h. Here is the method:
DU145 cells were treated with 2-DG (2 mM) for 12 h, then treated with or without buforin IIb (2 μM) for 12 h. The cells were lysed on ice for 30 min in RIPA lysis buffer, and the lysates were centrifuged at 12,000× g for 10 min at 4 °C. The supernatant was collected, separated by 12% sodium dodecyl sulfate-polyacrylamide gel electrophoresis (SDS-PAGE), and transferred onto a polyvinylidene difluoride (PVDF) membrane. After blocking with 5% skim milk in PBS, the PVDF membrane incubated with primary antibodies against Bcl-2, Bak, Bax, cytochrome C, caspase 3, and β-actin overnight at 4 °C, followed by incubating with appropriate secondary antibodies. After washing, bands were visualized by using ECL detection system according to the manufacturer’s instructions.
For orientation: Immunoblotting shows a protein as a band on a membrane.

The test system of assay [7] is DU145 cells. Nature of the assay: Intracellular ATP level. The following applies: 2 mM 2-DG 24 h, 2 μM buforin IIb 12 h. Here is the method:
as §1

The test system of assay [8] is DU145 cells. Nature of the assay: Mitochondrial membrane potential (JC-1, flow cytometry). The settings on record: 2 mM 2-DG; 2 μM buforin IIb 12 h. The method, then: The JC-1 Assay Kit was used to measure changes in mitochondrial membrane potential. Briefly, cells (5 × 10^5 cells/mL) were seeded into 6-well plates and treated with 2-DG (2 mM) for 12 h, then treated with or without buforin IIb (2 μM) for 12 h. DU145 cells were collected, washed in PBS, and incubated with 10 μg/mL JC-1 for 30 min. The cells were then collected by centrifugation and analyzed by flow cytometry. The red fluorescence indicated JC-1 aggregates, whereas green fluorescence indicated JC-1 monomers. Aggregated JC-1 (red fluorescence) indicates a high membrane potential, whereas monomer JC-1 (green fluorescence) indicates a membrane collapse.

Buforin IIb: the “inhibition of cell proliferation (rate)” value in the assay with DU145 cells [1] turned out to be 53%. In the assay with DU145 cells [2], the apoptosis amounted to 21.45%. The S/G2 population with DU145 cells [3] (PBS control 46.23%) came out at 30.06%. Further, the “G0/G1 population (%G1)” value in the assay with DU145 cells [3] (PBS control 53.7%) is recorded as 69.94%. Also, in the assay with DU145 cells [4], the “lactate production, % of that in the control” value was ~80%. In assay [5], the “inhibition of DU145 cell viability” value stood at 25%. In addition, in assay [6], the “Bcl-2 family protein levels” value was “downregulated Bcl-2 and upregulated Bak”; the “cytochrome c and caspase 3” value is “increased cytochrome c levels and induced the cleavage of procaspase 3”. Further, the “ATP levels, % of control levels” value with DU145 cells [7] was 30%. Moreover, the “effect on Δψm (JC-1 green/red fluorescence ratio, words)” value with DU145 cells [8] is on record as “increased the green/red fluorescence ratio”.
